Legend:
collagenase = test: Collagenase expression inhibiting effect in human fibroblasts (collagenase kit, absorbance 405 nm); type: cell-based; conditions: 10^-4 M in serum-free DMEM, 24 hours, relative to non-treated group as 100
Procedure: The collagenase production inhibiting activity of the substances of Comparative Examples and Examples was compared with tocopherol and EGCG as control substances.
Human fibroblasts were seeded onto a 96-well plate holding Dulbecco's modified Eagle's medium (DMEM) comprising 2.5% fetal bovine serum, with 5,000 cells/well, and cultured until ˜90% confluency. The cells were further cultured in serum-free DMEM for 24 hours and treated with the mixture of oriental herbal medicine processed ginseng polysaccharide and green tea polysaccharide prepared in Comparative Examples 1-5 and Examples 1-6 at 10^−4 M in serum-free DMEM for 24 hours. Then the cell culture was collected.
The degree of collagenase production from the collected cell culture was measured using a commercially available collagenase kit (Amersham Pharmacia, USA). […]
Absorbance was measured at 405 nm using a spectrophotometer and the expression level of collagenase was calculated according to Equation 1. The expression level was calculated with respect to the non-treated control group. Expression level of collagenase (%)=[…]{(Absorbance of cells treated with substances of Comparative Example or Example÷Absorbance of control)×100} [Equation 1] […]

procollagen = test: Procollagen production promoting effect in human fibroblasts (procollagen type-1 C-peptide EIA kit); type: cell-based; conditions: 10^-4 M in serum-free DMEM, 24 hours, relative to non-treated group as 100
Procedure: The procollagen production promoting activity of the substances of Comparative Examples and Examples was compared with that of vitamin C. Human fibroblasts were seeded onto a 96-well plate holding Dulbecco's modified Eagle's medium (DMEM) comprising 2.5% fetal bovine serum, with 5,000 cells/well, and cultured until ˜90% confluency. The cells were further cultured in serum-free DMEM for 24 hours and treated with the mixture of oriental herbal medicine processed ginseng polysaccharide and green tea polysaccharide prepared in Comparative Examples 1-5 and Examples 1-6 and vitamin C dissolved to 10^−4 M in serum-free DMEM for 24 hours. 24 hours later, the amount of free procollagen was measured using the procollagen type-1 C-peptide EIA kit (MK101, Takara, Japan). The level of procollagen production is given in Table 2 relative to the non-treated group as 100.

O=C(O[C@@H]1Cc2c(O)cc(O)cc2O[C@@H]1c1cc(O)c(O)c(O)c1)c1cc(O)c(O)c(O)c1 [EGCG]
Expression level of collagenase (%) (collagenase): 63%

O=C1O[C@H]([C@@H](O)CO)C(O)=C1O [Vitamin C]
Level of procollagen production (%) (procollagen): 121%

Tocopherol
Expression level of collagenase (%) (collagenase): 76%

Reference: patent publication US10022317B2, “Composition comprising an extract of herbal medicine processed by an oriental herbal medicine processing” (AMOREPACIFIC CORPORATION, priority 2013, dated 2018)
